Results from patent US9303009B2, “Migrastatins and uses thereof” (Sloan-Kettering Institute for Cancer Research, priority 2011, dated 2016).

Legend:
[1] = test system: multiple myeloma (RPMI8226, MM1S, ARP-GL, CAG-GL, OPM2-GL, SKO-007-GL, U266-GL, MM1R cells); assay: toxicity by alamarBlue, multiple myeloma cell lines; type: cell-based, human; conditions: mean of 8 cell lines
Protocol: The toxicity of compounds 42-45 and their IC50 was determined on a panel of human tumor cell lines of multiple myeloma (RPMI8226, MM1S, MM1R, ARP-GL, CAG-GL, OPM2-GL, SKO-007-GL, U266-GL,) and lung cancer (H299-GL, H522-GL, H647-GL, A549-GL, A549-GL, HI993, H1075-GL, HI373, H17030) origin. Tumor cells were dissociated into a single-cell suspension by Trypsin/Collagenase IV treatment and 500 cells per well were aliquoted into each well of 384 microwell plates in 50 μl of RPMI medium with 10% FCS. Compounds 42-45 were dissolved in DMSO and serially diluted in RPMI medium plus 10% FCS and added (1 mM to 1 nM) to quadruplicate wells containing tumor cells. Dilutions of DMSO without compound were used as a control. After 18 hrs or 2 days, the cultures were pulsed with 6 μl of alamarBlue® (Invitrogen Inc. Grand Island, N.Y.) and incubated overnight. The alamarBlue® provides a cell growth indicator based on detection of metabolic activity. The assay system incorporates an oxidation-reduction indicator that both fluoresces and changes color in response to chemical reduction of growth medium resulting from cell growth. The fluorescence intensity was measured using a Synergy H1 Microplate Reader (Biotek Inc, Winooski, VT) and a dose-response curve established for IC50 determination.

A549 cells = assay: in vitro wound-healing (scratch) assay; type: cell-based, human; conditions: for migration in response to a scratch wound: 100 μM
Protocol: This Example evaluates the anti-metastatic properties of new migrastatin analogs by assessing their ability to inhibit in vitro cancer cell migration in a wound-healing assay and their chemotaxis in a transwell migration assay. […] Similar results were obtained with a panel of human lung cancer cell lines (H1975, H647, H522, H1703, data not shown).
For the results depicted in FIG. 3, A549 cancer cells were grown as nearly confluent monolayer culture and then starved overnight in medium containing 0.5% FCS. Cell monolayers were then scratched using pipette tip, photographed, and incubated with a 6 log-scaled concentration range of ME and CME from 10^−3 to 10^−8M, with or without 2% FCS. After 12 H, areas were fixed, stained and photographed using computer-assisted microscopy. Micrographs (4× magnification) are presented, showing the A549 cancer cell migration across the scratches in absence of serum (no migration), presence of serum (migration), and in the presence of serum plus CME or ME at 100 μM or 100 nM.
Wound-Healing Assay: Cancer cells migration was measured using an “in vitro wound-healing assay” (or scratch assay) performed in a 12-well plate (Becton Dickinson). Briefly, cancer cells were seeded at a density of 5-10×10^4 cells per well, grown to near confluent monolayers in 10% serum-supplemented M5 medium and then starved overnight in a low serum medium (0.5% FCS). Perpendicular wounds were scratched through the cell monolayer using a sterile 200 μL pipette tip. The cells were then washed twice very gently using PBS and the scratched areas were photographed at 4× and 20× magnification using computer-assisted microscopy. […] Each well was photographed at 4× and 20× magnification and the pictures analyzed with CellProfiler2.0 cell image analysis software as previously described, (Carpenter A E, Jones T R, Lamprecht M R, Clarke C, Kang I H et al. (2006), Genome Biology 7(10):R100). The migration in response to the test condition was calculated as cell coverage of the original cell-free zone and related to DMSO vehicle control.

[2] = test system: lung cancer (H299-GL, H522-GL, H647-GL, A549-GL, H1993, H1075-GL, H1373-GL H1703 cells); assay: toxicity by alamarBlue, lung cancer cell lines; type: cell-based; conditions: mean of 8 cell lines
Protocol: Dilutions of DMSO without compound were used as a control. After 18 hrs or 2 days, the cultures were pulsed with 6 μl of alamarBlue® (Invitrogen Inc. Grand Island, N.Y.) and incubated overnight. The alamarBlue® provides a cell growth indicator based on detection of metabolic activity. The assay system incorporates an oxidation-reduction indicator that both fluoresces and changes color in response to chemical reduction of growth medium resulting from cell growth. The fluorescence intensity was measured using a Synergy H1 Microplate Reader (Biotek Inc, Winooski, VT) and a dose-response curve established for IC50 determination.

Row | Structure (SMILES) | Estimated lethal doses (LD50) ([1]; 18 h exposure) [µM] | Estimated lethal doses (LD50) ([1]; 48 h exposure) [µM] | migration in response to a scratch wound (A549 cells) | Estimated lethal doses (LD50) ([2]; 48 h exposure) [µM] | inhibition of migration (A549 cells; submicromolar concentrations) [%] | Estimated lethal doses (LD50) ([2]; 18 h exposure) [µM]
1 | CO[C@H]1/C=C/CCCCCOC/C(C)=C\[C@@H](C)[C@@H]1O [ME, migrastatin ether] | 794.8 | 881.7 | almost completely blocked | 639.8 | – | –
2 | CO[C@H]1/C=C/CCCCCOC/C(C)=C\[C@@H](C)[C@@H]1OCC(=O)O [CME, Carboxymethyl migraether] | 503.6 | 452.9 | almost completely blocked | 697.9 | 32 | 553.9
